Columns and labels:
[1] = tested on: HSV-1; set-up: method as in PMID 24493066, PMID 26913545; conditions: free compounds, previous studies against HSV-1; ref [36],[38]; cited from earlier work
[2] = Cytotoxicity assay (MTT); type: cell-based, African green monkey (Cercopithecus aethiops); conditions: African green monkey, free (not encapsulated), Vero cells
Description: Initially, we evaluated the influence of liposomes on cell viability. For this, monolayers of Vero cells (10^4 cells/mL) were incubated with several concentrations of 2-aminomethyl-3-hydroxy-1,4 naphthoquinone derivatives that either were or were not encapsulated in the liposome (0.5 to 10 μM) for 48 h at 37 °C (Table 2). Following this, 1 mg/mL of 3-(4,5-Dimethylthiazol-2-yl)-2,5 Diphenyl Tetrazolium Bromide was added to each well for 4 h at 37 °C and the resulting purple formazan was followed at 570 nm. Since liposomes are considered an excellent delivery system, it may be reasonable for the liposome to increase the cytotoxic effect on cells.
Vero cells cultivated in 96-multiwell plates (1 × 10^4 cells/well) were incubated with liposomes coupled to 2-aminomethyl-3-hydroxy-1,4-naphthoquinones in different concentrations (0.5, 1, 5 and 10 μM) for 48 h at 37 °C and 5% CO2 atmosphere. Then, 50 μL of 3-(4,5-dimethylthiazol-2-yl)-2,5 diphenyl MTT (1 mg/mL, Sigma-Aldrich, St Louis, MO, USA) was added to each well for 4 h at 37 °C [48]. The MTT reduction in living cells creates formazan, a purple compound that is absorbed at 570 nm. The 50% cytotoxic concentration (CC50) was calculated by linear regression analysis of the dose–response curves.

[3] = tested on: HSV-1 strain SC-16; test: Yield reduction assay; type: cell-based, Herpes Simplex Virus 1; conditions: for EC50: Human alphaherpesvirus 1, SC16; for SI (CC50/EC50 ratio): free (non-encapsulated) derivatives, concentrations up to 10 μM
Description: Briefly, after incubation with HSV-1 (MOI of 0.1) for 1 h at 37 °C, cells were washed with MEM 5% FCS and incubated with acyclovir, […] from 0.01 to 10 μM for 24 h in atmosphere, with 5% CO2 at 37 °C. After the dilution (1:10) of the viral suspension, new 24-well plates were used to determine the EC50 values, based on viral control.
For all antiviral assays, strain SC-16 HSV-1 was used at a multiplicity of infection (MOI) of 0.1 to infect Vero cells at 3 × 10^5 cells/well using a modified yield reduction assay. All aminomethylnaphthoquinone derivatives were previously diluted in pre-chilled MEM with 5% FCS.
To determine the HSV-1 title, Vero cells maintained in 24-multiwell plates (3 × 10^5 cell/well) were infected with HSV-1 strain SC-16 ([…]) for 1 h at 37 °C and 5% CO2 atmosphere.
After the removal of the viral inoculum, cells were treated with 0.01 µM to 10 µM of compound 1, 2, 3 and ACV encapsulated in liposomes for 24 h at 37 °C and 5% CO2 atmosphere. Then, the cells were subjected to three cycles of freezing and thawing and the inoculum diluted (1:10) to a new infection in 24-multiwell plates (10^5 cells/well) for 1 h at 37 °C and 5% CO2 atmosphere. The cells were covered with MEM 2X, 5% FCS and 2% methylcellulose for 48h at 37 °C and the viral title was determined by the number of viral plaque units per mL (PFU/mL). EC50 values, which means the drug concentration able to inhibit 50% of the viral plaque formation, were determined by linear regression compared to the untreated infected control.

[4] = tested on: BALB/c; set-up: method as in earlier work; conditions: oral administration, ref [37]; cited from earlier work

SMILES | SI [1] | CC50 at 48 h [2] | EC50 [3] | SI (CC50/EC50 ratio) [3] | Effect on transaminases level or kidneys functions [4]
Nc1nc2c(ncn2COCCO)c(=O)[nH]1 [Acyclovir, acyclovir, reference compound] | 0.80 | 15 ± 1 µM |  |  | 
CCCCNC(C1=C(O)C(=O)c2ccccc2C1=O)c1ccc(Cl)cc1Cl (stereo not drawn) [compound 1] |  | 19 ± 1 µM | 1.98 ± 0.3 µM | 9.6 | no effect on transaminases level or kidneys functions
O=C1C(O)=C(C(NCc2ccccc2)c2ccc(Cl)cc2Cl)C(=O)c2ccccc21 (stereo not drawn) [compound 2] |  | 22 ± 2 µM | 1.06 ± 0.49 µM | 20.75 | 
O=C1C(O)=C(C(NCc2ccccc2)c2ccc([N+](=O)[O-])cc2)C(=O)c2ccccc21 (stereo not drawn) [compound 3] |  | 17 ± 2 µM | 3.1 µM | 5.48 | 

Reference: PMC8586984, “Antiviral Potential of Naphthoquinones Derivatives Encapsulated within Liposomes” (Molecules, 2021)
